Data: the supplement of paper PMC10307832

Assays:
Test in all cases: relative viability (nuclei count vs DMSO), 5 days (fraction); higher = more cells survive
[1] = compound: Nc1ccccc1NC(=O)c1ccc(CNC(=O)OCc2cccnc2)cc1 [Entinostat] + N=C(N)NC(=N)NCCc1ccccc1 [Phenformin] (partner 250 µM)
Procedure, shortened: (§1)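 Lung cancer cell lines, seeded in 1536-well plates, were treated the following day by pin tool with a single drug or with five library-drug doses (not always all listed) in √10 steps on top of a fixed anchor-drug dose. Cells were fixed and nuclei stained in one step after 5 days, and nuclei were counted. Relative viability is the nuclei count for treated wells divided by that for vehicle wells, reported as medians of duplicate plates.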

[2] = compound: Nc1ccccc1NC(=O)c1ccc(CNC(=O)OCc2cccnc2)cc1 [Entinostat] + CS(=O)(=O)CCNCc1ccc(-c2ccc3ncnc(Nc4ccc(OCc5cccc(F)c5)c(Cl)c4)c3c2)o1 [Lapatinib] (partner 2 µM)
Procedure, shortened: as §1

[3] = compound: CN1CCC(CNc2ccc3ncc(-c4cccc(OC(F)(F)F)c4)n3n2)CC1 [SGI-1776] + Cc1nc(Nc2ncc(C(=O)Nc3c(C)cccc3Cl)s2)cc(N2CCN(CCO)CC2)n1 [Dasatinib] (partner 0.075 µM)
Procedure, shortened: as §1

[4] = compound: C1COCCN1C2=NC(=NC3=C2OC4=C3C=CC=N4)C5=CC(=CC=C5)NC(=O)C6=CN=C(C=C6)N + Cc1nc(Nc2ncc(C(=O)Nc3c(C)cccc3Cl)s2)cc(N2CCN(CCO)CC2)n1 [Dasatinib] (partner 0.075 µM)
Procedure, shortened: as §1

Row | Cell Line | relative viability ([1]; first compound 0.02 µM) | relative viability ([1]; first compound 0.06325 µM) | relative viability ([1]; first compound 0.2 µM) | relative viability ([1]; first compound 0.6325 µM) | relative viability ([1]; first compound 2 µM) | relative viability ([2]; first compound 0.02 µM) | relative viability ([2]; first compound 0.06325 µM) | relative viability ([2]; first compound 0.2 µM) | relative viability ([2]; first compound 0.6325 µM) | relative viability ([2]; first compound 2 µM) | relative viability ([3]; first compound 0.08 µM) | relative viability ([3]; first compound 0.8 µM) | relative viability ([3]; first compound 2.53 µM) | relative viability ([3]; first compound 8 µM) | relative viability ([4]; first compound 0.02 µM) | relative viability ([4]; first compound 0.06325 µM) | relative viability ([4]; first compound 0.2 µM) | relative viability ([4]; first compound 0.6325 µM) | relative viability ([4]; first compound 2 µM)
1 | SK-MES-1 | 0.614 | 0.699 | 0.721 | 0.657 | 0.504 | 0.511 | 0.525 | 0.494 | 0.488 | 0.395 | 0.476 | 0.415 | 0.35 | 0.211 | 0.342 | 0.406 | 0.259 | 0.239 | 0.244
2 | NCI-H1793 | 0.439 | 0.4 | 0.368 | 0.302 | 0.316 | 0.695 | 1.07 | 0.617 | 0.393 | 0.328 | 0.395 | 0.332 | 0.382 | 0.405 | 0.378 | 0.453 | 0.417 | 0.334 | 0.383
3 | LC-2-ad | 0.568 | 0.566 | 0.579 | 0.365 | 0.208 | 0.975 | 0.904 | 0.907 | 0.334 | 0.113 | 0.726 | 0.521 | 0.397 | 0.402 | 0.629 | 0.716 | 0.52 | 0.435 | 0.417
4 | NCI-H3122 | 0.411 | 0.395 | 0.389 | 0.321 | 0.22 | 1.02 | 1.07 | 1.09 | 0.917 | 0.893 | 0.877 | 0.76 | 0.96 | 0.821 | 0.796 | 0.786 | 0.787 | 0.868 | 0.657
5 | LCLC-97TM1 | 0.423 | 0.376 | 0.392 | 0.465 | 0.395 | 0.942 | 1.21 | 0.784 | 0.41 | 0.326 | 0.783 | 0.938 | 0.85 | 0.949 | 0.865 | 0.939 | 0.762 | 0.914 | 0.675
6 | NCI-H520 | 0.497 | 0.723 | 0.701 | 0.615 | 0.49 | 1.03 | 0.946 | 0.864 | 0.776 | 0.301 | 0.279 | 0.221 | 0.153 | 0.131 | 0.227 | 0.188 | 0.219 | 0.177 | 0.131
7 | NCI-H1792 | 0.318 | 0.441 | 0.315 | 0.101 | 0.17 | 0.953 | 0.96 | 0.836 | 0.767 | 0.513 | 0.781 | 0.742 | 0.637 | 0.491 | 0.746 | 0.79 | 0.768 | 0.464 | 1.13
8 | NCI-H358 | 0.335 | 0.546 | 0.506 | 0.245 | 0.108 | 0.467 | 0.438 | 0.521 | 0.367 | 0.287 | 0.197 | 0.186 | 0.158 | 0.133 |  | 0.134 | 0.109 | 0.152 | 0.15
9 | NCI-H1755 | 0.605 | 0.613 | 0.569 | 0.513 | 0.349 | 1.02 | 1.02 | 0.95 | 0.532 | 0.264 | 0.454 | 0.437 | 0.351 | 0.287 | 0.499 | 0.408 | 0.409 | 0.346 | 0.256
10 | EPLC-272H | 0.297 | 0.303 | 0.276 | 0.175 | 0.217 | 0.951 | 0.831 | 1.27 | 0.365 | 0.334 | 0.381 | 0.365 | 0.264 | 0.314 | 0.295 | 0.359 | 0.267 | 0.309 | 0.219
11 | NCI-H2228 | 0.285 | 0.334 | 0.395 | 0.22 | 0.207 | 1.12 | 1.02 | 1.08 | 0.457 | 0.315 | 0.581 | 0.665 | 0.416 | 0.27 | 0.647 | 0.487 | 0.439 | 0.33 | 0.246
